Source: US20200172473A1, “DUAL MODULATORS OF FARNESOID X RECEPTOR AND SOLUBLE EPOXIDE HYDROLASE” (JOHANN WOLFGANG GOETHE-UNIVERSITÄT FRANKFURT AM MAIN, priority 2017, published 2020)
Values joined by “and” are separate entries in the source; they are usually repeats but may differ in a detail not shown here. Equal values may be shown once.

Legend:
human FXR = biological target: T1, human FXR (Homo sapiens, UniProt Q96RI1); assay: full-length FXR reporter gene (transactivation) assay in HeLa cells; assay type: cell-based; details: for Emax: HeLa, read-out: FXR activation max. rel. activation (converted); for EC50: full-length FXR reporter gene assay, HeLa cells, read-out: FXR activation EC50
T1 construct: characterized in a full-length (fl) FXR reporter gene assay in HeLa cells; expressed in transfected cells; host or cells: HeLa
T1 sequence (Q96RI1 1-486): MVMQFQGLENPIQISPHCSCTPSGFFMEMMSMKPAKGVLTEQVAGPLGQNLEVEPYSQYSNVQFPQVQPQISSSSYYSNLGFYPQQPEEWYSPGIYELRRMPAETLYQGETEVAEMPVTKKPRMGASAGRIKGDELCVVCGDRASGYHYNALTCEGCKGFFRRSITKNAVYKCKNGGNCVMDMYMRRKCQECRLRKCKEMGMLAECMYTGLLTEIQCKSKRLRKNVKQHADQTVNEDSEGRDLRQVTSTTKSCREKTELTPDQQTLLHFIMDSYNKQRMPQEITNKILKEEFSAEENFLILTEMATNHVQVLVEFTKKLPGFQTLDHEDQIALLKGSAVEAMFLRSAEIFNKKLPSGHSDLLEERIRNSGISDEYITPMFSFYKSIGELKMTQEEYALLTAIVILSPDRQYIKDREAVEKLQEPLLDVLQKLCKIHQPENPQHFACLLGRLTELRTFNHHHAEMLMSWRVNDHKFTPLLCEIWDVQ
T1 sequence (P19793 1-462 partner): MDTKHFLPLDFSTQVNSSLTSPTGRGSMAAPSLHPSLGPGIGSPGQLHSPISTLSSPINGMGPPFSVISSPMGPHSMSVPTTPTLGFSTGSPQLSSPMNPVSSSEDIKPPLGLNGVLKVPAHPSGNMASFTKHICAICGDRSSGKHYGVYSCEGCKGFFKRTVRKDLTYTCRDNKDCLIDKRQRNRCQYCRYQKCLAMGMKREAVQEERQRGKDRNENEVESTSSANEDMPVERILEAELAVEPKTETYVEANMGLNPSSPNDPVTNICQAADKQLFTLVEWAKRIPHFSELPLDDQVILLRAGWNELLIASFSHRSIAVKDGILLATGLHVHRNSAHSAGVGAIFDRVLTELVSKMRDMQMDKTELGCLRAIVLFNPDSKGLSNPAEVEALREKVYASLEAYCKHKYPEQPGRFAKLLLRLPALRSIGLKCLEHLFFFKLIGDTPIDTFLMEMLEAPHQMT
From the text: (§1) This assay is based on a reporter construct containing a firefly luciferase under the control of the FXR response element from bile salt export protein (BSEP). FXR and its hetero dimer partner retinoid X receptor (RXR) as expression constructs under the control of a CMV promoter as well as a constitutively expressed renilla luciferase (SV40 promoter) for normalization and toxicity control were co-transfected. […] The sEH inhibitory potency of the test compounds was quantified in a fluorescence-based assay using recombinant enzyme and the fluorogenic sEH substrate PHOME^37 that is hydrolyzed to a fluorescent 6-methoxynaphtaldehyde by sEH.
Plasmids: pcDNA3-hFXR contains the sequence of human FXR and was already published elsewhere.^47 pGL3 basic (Promega Corporation, Fitchburg, Wis., USA) was used as a reporter plasmid, with a shortened construct of the promotor of the bile salt export protein (BSEP) cloned into the SacI/NheI cleavage site in front of the luciferase gene.^48 pRL-V40 (Promega) was transfected as a control for normalization of transfection efficiency and cell growth. pSG5-hRXR was already published elsewhere as well.^49
Assay procedure: HeLa cells were grown in DMEM high glucose supplemented with 10% FCS, sodium pyruvate (1 mM), penicillin (100 U/mL) and streptomycin (100 μg/mL) at 37° C. and 5% CO2. […] Transient transfection of HeLa cells with BSEP-pGL3, pRL-SV40 and the expression plasmids pcDNA3-hFXR and pSG5-hRXR was carried out using calcium phosphate transfection method. […] Each concentration was tested in triplicate wells and each experiment was repeated independently at least three times. […] Luminescence was measured with a Tecan Infinite M200 luminometer (Tecan Deutschland GmbH, Crailsheim, Germany). Normalization of transfection efficiency and cell growth was done by division of firefly luciferase data by renilla luciferase data multiplied by 1000 resulting in relative light units (RLU). Fold activation was obtained by dividing the mean RLU of the tested compound at a respective concentration by the mean RLU of untreated control. […] EC50 and standard error of the mean values were calculated with the mean relative activation values of at least three independent experiments by SigmaPlot 10.0 (Systat Software GmbH, Erkrath, Germany) using a four parameter logistic regression.

recombinant human sEH = biological target: T2, recombinant human sEH (Homo sapiens, UniProt P34913); assay: fluorescence-based sEH activity assay with PHOME substrate; assay type: biochemical; details: for IC50: recombinant human sEH, PHOME, read-out: sEH inhibition IC50; for inhibition at 50 µM: read-out: sEH % inhibition at indicated conc.
T2 sequence (P34913 1-555): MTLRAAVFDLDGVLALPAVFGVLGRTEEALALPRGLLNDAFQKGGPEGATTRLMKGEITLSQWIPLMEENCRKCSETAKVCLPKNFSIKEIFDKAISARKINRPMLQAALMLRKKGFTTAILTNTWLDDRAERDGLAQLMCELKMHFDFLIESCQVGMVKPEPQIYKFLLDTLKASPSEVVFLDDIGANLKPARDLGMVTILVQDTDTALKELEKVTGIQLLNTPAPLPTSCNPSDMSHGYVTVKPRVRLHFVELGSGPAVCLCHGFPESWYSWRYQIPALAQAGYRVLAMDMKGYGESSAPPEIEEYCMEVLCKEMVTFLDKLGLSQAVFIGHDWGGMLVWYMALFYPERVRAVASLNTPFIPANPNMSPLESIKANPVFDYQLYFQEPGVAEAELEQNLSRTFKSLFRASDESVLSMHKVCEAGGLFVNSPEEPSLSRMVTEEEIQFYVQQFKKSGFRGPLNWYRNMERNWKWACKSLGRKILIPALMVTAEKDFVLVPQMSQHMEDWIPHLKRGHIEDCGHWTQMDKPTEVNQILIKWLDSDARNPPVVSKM
From the text: as §1
The sEH inhibitory potency of the compounds were determined in a fluorescence-based 96-well sEH activity assay using recombinant human enzyme^50,51. Non-fluorescent PHOME (3-phenylcyano-(6-methoxy-2-naphthalenyl)methyl ester 2-oxiraneacetic acid; Cayman Chemicals) which can be hydrolyzed by the sEH to fluorescent 6-methoxynaphthaldehyde served as substrate. Recombinant human sEH (in Bis-Tris buffer, pH 7, with 0.1 mg/mL BSA containing a final concentration of 0.01% Triton-X 100) was pre-incubated with test compounds (in DMSO, final DMSO concentration: 1%) for 30 min at room temperature. […] A blank control (no protein and no compound) as well as a positive control (no compound) were executed. All experiments were conducted in triplicate and repeated in at least three independent experiments. For IC50 calculation, dose-response curves of increasing compound concentrations were recorded.

[1] = biological target: T3, cellular sEH (HepG2 cell homogenates) (Homo sapiens, UniProt P34913); details: 10 μM (positive control); DMSO 63±16, blank 499±123
T3 sequence (P34913 1-555): T2 sequence (P34913 1-555)
Procedure: 25 ng (+)14(15)-EET-d11 (Cayman Chemical, Ann Arbor, USA) was added and incubation was continued for additional to min at 37° C. A blank test was performed with PBS (containing 0.1 mg/ml BSA) treated likewise. The reactions were stopped by adding 100 μl of ice cold methanol. After centrifugation (2000 rpm, 4° C., 5 min), supernatants were analyzed by LC-MS/MS and the amounts of (±)14(15)-EET-d11 and the corresponding (±)14(15)-DHET-d11 were determined.

aqueous solubility = assay type: physicochemical; details: LLOQ 0.1 μg/mL
[2] = system: PPARγ target genes CD36 and FAM3A; assay: PPARγ target gene mRNA quantification (qRT-PCR) in HepG2 cells; assay type: cell-based; details: HepG2, 1 μM

Row | Emax (human FXR) [%] | EC50 (human FXR) | IC50 (recombinant human sEH) [nM] | inhibition at 50 µM (recombinant human sEH) [%] | Compound | other results
1 | 29 | 46 nM and 45 nM | 40 ± 6 | – | CC(C)(C)c1ccc(C(=O)NCc2ccc(N)cc2Cl)cc1 [69a, N-(4-Amino-2-chlorobenzyl)-4-(tert-butyl)benzamide] | –
2 | 12 | – | – | 52 ± 1 | Cc1ccc(C(=O)NCc2ccc(C(=O)O)cc2)cc1C [compound 10] | –
3 | 18 | – | – | 26 ± 2 | COc1ccc(C(=O)NCc2ccc(C(=O)O)cc2)cc1OC [compound 15] | –
4 | 14 | – | – | 26 ± 2 | CC(C)(C)c1ccc(C(=O)NCc2cccc(C(=O)O)c2)cc1 [compound 22] | –
5 | 21 | – | – | – | CC(C)(C)c1ccc(C(=O)NCc2ccc(NC(=O)C(F)(F)F)cc2Cl)cc1 [compound 56] | aqueous solubility (aqueous solubility): < 0.1 µg/mL
6 | 24 | 3 ± 0.001 nM | 16 ± 0.6 | – | CC(C)(C)c1ccc(C(=O)NCc2ccc(NS(C)(=O)=O)cc2Cl)cc1O [compound 78, 4-(tert-Butyl-3-hydroxy)-N-(2-chloro-4-(methylsulfonamido)benzyl)benzamide] | –
7 | 19 | 1200 ± 180 nM | 2 ± 0.08 | – | CC(C)(C)c1ccc(C(=O)NCc2ccc(NS(C)(=O)=O)cc2C(F)(F)F)cc1 [compound 80, 4-(tert-Butyl)-N-(2-trifluoromethyl-4-(methylsulfonamido)benzyl)benzamide] | –
8 | 23 | 1460 ± 23 nM | 45 ± 2 | – | CN(C)c1ccc(C(=O)NCc2ccc(NS(C)(=O)=O)cc2Cl)cc1 [compound 83, 4-(Dimethylamino)-N-(2-chloro-4-(methylsulfonamido)benzyl)benzamide] | –
9 | 31 | 540 ± 20 nM | 4 ± 0.4 | – | CS(=O)(=O)Nc1ccc(CNC(=O)c2ccc(C3(C(F)(F)F)CC3)cc2)c(Cl)c1 [compound 84, 4-((1-Trifluoromethyl)cycloprop-1-yl)-N-(2-chloro-4-(methylsulfonamido)benzyl)benzamide] | –

The remaining lines, values behind:

Row | Compound | Emax (human FXR) [%] | EC50 (human FXR) | IC50 (recombinant human sEH) [nM] | inhibition at 50 µM (recombinant human sEH) [%] | other results
10 | O=C(Nc1ccc(I)cc1)NC1CCCCC1 [CIU, reference compound] | – | – | – | – | activity in FXR reporter gene assay (human FXR; 10 μM): no activity; (±)14(15)-EET-d11/(±)14(15)-DHET-d11 ratio [1]: 519±55
11 | O=C(O)c1ccc(CNC(=O)c2ccc3ccccc3c2)cc1 [compound 17] | 18 | – | – | 45 ± 1 | –
12 | Cc1cc(CNC(=O)c2ccc(C(C)(C)C)cc2)ccc1C(=O)O [compound 26] | 14 | – | – | 53 ± 1 | –
13 | CC(C)(C)c1ccc(C(=O)NCc2ccc(C(=O)O)c(Cl)c2)cc1 [compound 28] | 21 | – | – | 50 ± 1 | –
14 | CC(NC(=O)c1ccc(C(C)(C)C)cc1)c1ccc(C(=O)O)cc1 (stereo not shown) [compound 32] | 24 | – | – | 37 ± 1 | –
15 | CSc1ccc(CNC(=O)c2ccc(C(C)(C)C)cc2)cc1 [compound 51] | 33 | ~100 nM | ~100 | – | –
16 | CC(C)(C)c1ccc(C(=O)NCc2ccc(NS(C)(=O)=O)cc2Cl)c(O)c1 [compound 77, 4-(tert-Butyl-2-hydroxy)-N-(2-chloro-4-(methylsulfonamido)benzyl)benzamide] | – | – | 380 ± 50 | – | FXR activation (result in words) (human FXR): antagonistic
17 | CC(C)S(=O)(=O)Nc1ccc(CNC(=O)c2ccc(C(C)(C)C)cc2)c(Cl)c1 [compound 81, 4-(tert-Buty)-N-(2-chloro-4-(isopropylsulfonamide)benzyl)-benzamide] | 11 | 420 ± 20 nM | 11 ± 0.3 | – | –
18 | CCS(=O)(=O)Nc1ccc(CNC(=O)c2ccc(C(C)(C)C)cc2)c(Cl)c1 [compound 82, 4-(tert-Butyl)-N-(2-chloro-4-(ethylsulfonamido)benzyl)-benzamide] | 23 | 490 ± 50 nM | 6 ± 0.5 | – | –
19 | CCc1ccc(CCOc2ccc(CC3SC(=O)NC3=O)cc2)nc1 (stereo not shown) [pioglitazone, reference compound] | – | – | – | – | CD36 mRNA expression compared to vehicle set as 100% [2]: 353±43%; FAM3A mRNA expression compared to vehicle set as 100% [2]: 310±66%
